From patent publication US20050245497A1, “Treatment of ophthalmic conditions” (priority 2004, published 2005)

Tests used:
VEGF receptor Flk-1 = assay: FACS analysis of Flk-1 expression in choroidal endothelial cells; format: cell-based; details: Example 1, FIG. 1; choroidal endothelial cells treated with PMA, compared to control cells
Procedure: (§1) To show the capacity of a mineralocorticoid, specifically fludrocortisone, to down-regulate receptors involved in biochemical pathways associated with oedema and exudative retinopathies, an assay was conducted looking at the activity of VEGF receptors Flk-1 and Flt-1 in choroidal endothelial cells. Flk-1 is known to be involved in cell proliferation whilst Flt-1 is involved in cell permeability.
(§2) The expression of Flk-1 and Flt-1 was measured, using fluorescence activated cell sorting (FACS) analysis, in untreated cells, cells treated with phorbolmyristate acetate (PMA), cells treated with PMA and then with the glucocorticoid triamcinolone acetonide (TA) and cells treated with PMA and then with the mineralocorticoid fludrocortisone. PMA is a model for pro-inflammatory cytokines and TA is known to […] the glucocorticoid receptor
(§3) The expression of Flk-1 and Flt-1 was also investigated in untreated choroidal endothelial cells, choroidal endothelial cells treated with Tumour Necrosis Factor-α (TNF-α) and choroidal endothelial cells treated with the mineralocorticoid fludrocortisone. TNF-α is a pro-inflammatory cytokine.

VEGF receptor Flt-1 = assay: FACS analysis of Flt-1 expression in choroidal endothelial cells; format: cell-based
Procedure: as §1, §2, §3

[1] = tested on: bacterial endotoxin induced exudative response; assay: Bacterial endotoxin induced exudative response in rabbits, anterior chamber fluorophotometry of FITC-dextran; format: in vivo, New Zealand albino rabbits; details: topical 4 mg/ml; for Anterior Chamber Fluorophotometer Results, Mean: Mean of 5 rabbits; for Anterior Chamber Fluorophotometer Results, Mean / Anterior Chamber Fluorophotometer Results: treated right eye, FITC-dextran fluorescence 90 minutes after endotoxin; for Anterior Chamber Fluorophotometer Results: 50 μL drop at 0, 1, 2 and 3 hours; for reduction in the exudative response / exudative response (result in words): treated eye versus saline control eye; for reduction in the exudative response: n=5, p<0.03 (Wilcoxon signed rank test); for exudative response (result in words): n=5
Procedure: Thirty New Zealand albino rabbits weighing between 2.5 and 3.0 kg were used for this study. The rabbits were treated in accordance with the guidelines of the Association for Research in Vision and Ophthalmology (ARVO). One eye of each animal was used for experimental purposes, the other serving as a control eye. Slit lamp and indirect funduscopic examination was performed on all eyes before and after euthanasia.
The rabbits were divided into six groups. Group 1 (n=5) received topical 4 mg/ml deoxycortisone acetate (Spectrum Chemical Corp). Group 2 (n=5) received topical 4 mg/ml 11 -deoxycorticosterone (Spectrum Chemical Corp). Group 3 (n=5) received topical 4 mg/ml 11-desoxycortisone (Spectrum Chemical Corp). Group 4 (n=5) received topical 4 mg/ml aldosterone (Farmabios, Italy). Group 5 (n=5) received topical 4 mg/ml deoxycorticosterone (Spectrum Chemical Corp). Group 6 (n=5) received topical fludrocortisone acetate (Farmabios, Italy).
The rabbits were anaesthetised with 1 ml of a mixture of ketamine hydrochloride (35 mg/kg, intramuscular) and xylazine hydrochloride (5 mg/kg, intramuscular). In all groups, drugs were applied topically to the right eye and saline was applied to the left eye four times (at time 0, 1, 2 and 3 hours). Drugs and saline were administered to the eye as a single 50 μL drop.
20 mg/ml dextran-isothiocyanate-fluorescein (FITC-dextran, Sigma) was prepared and a 20 mg/kg dose was injected into the marginal ear vein at time […].
Endotoxin (2.5 μg/kg) isolated from Salmonella typhimurium (Sigma) was injected into the same vein at the same time with the third drop occurring at time 2 hours.
The FITC-dextran concentration in the anterior chamber was determined using a prototype fluorophotometer (OcuMetrics, Mountain View, Calif.) 90 minutes after an endotoxin administration. This instrument has excitation wavelengths of approximately 410 to 490 nm, with emission wavelengths of approximately 520 to 630 nm. The fluorescence emitted by the FITC-dextran was determined in both left and right eyes.
Statistical analysis was performed, comparing the anterior chamber fluorescence measurements of the test and control eye of each animal. A paired Wilcoxon Signed Rank Test (StatXact) was used, with a one sided p-value.

Row | Compound | expression of Flk-1 (VEGF receptor Flk-1) | expression of Flt-1 (VEGF receptor Flt-1; Example 1, FIG. 1, choroidal endothelial cells treated with PMA) | Anterior Chamber Fluorophotometer Results, Mean [1] | Anterior Chamber Fluorophotometer Results ([1]; Rabbit 1) | Anterior Chamber Fluorophotometer Results ([1]; Rabbit 2) | Anterior Chamber Fluorophotometer Results ([1]; Rabbit 3) | Anterior Chamber Fluorophotometer Results ([1]; Rabbit 4) | Anterior Chamber Fluorophotometer Results ([1]; Rabbit 5) | reduction in the exudative response [1] [%] | exudative response (result in words) [1] | expression of Flt-1 (VEGF receptor Flt-1; Example 2, FIG. 2, choroidal endothelial cells, compared to untreated control cells)
1 | CCCCCCCCCCCCCC(=O)O[C@@H]1[C@@H](C)[C@@]2(O)[C@@H](C=C(CO)C[C@]3(O)C(=O)C(C)=C[C@@H]23)[C@@H]2C(C)(C)[C@]12OC(C)=O [PMA, phorbolmyristate acetate] | increased | increased |  |  |  |  |  |  |  |  | 
2 | CC(=O)OCC(=O)[C@H]1CC[C@H]2[C@@H]3CCC4=CC(=O)CC[C@]4(C)[C@H]3CC[C@]12C [DA, 21-hydroxypregn-4-ene-3,20-dione 21 acetate] |  |  | 201 | 220 | 116 | 455 | 100 | 113 | 47 |  | 
3 | C[C@]12CC[C@H]3[C@@H](CCC4=CC(=O)CC[C@@]43C)[C@@H]1CC[C@@H]2C(=O)CO [11 -deoxycorticosterone] |  |  |  |  |  |  |  |  |  | did not show a reduction in the exudative response | 
4 | C[C@]12CC[C@H]3[C@@H](CCC4=CC(=O)CC[C@@]43C)[C@@H]1CC[C@@H]2C(=O)CO [DS, 21-hydroxypregn-4-ene-3,20-dione] |  |  | 174 | 340 | 245 | 59 | 86 | 140 | 37 |  | 
5 | C[C@]12CCC(=O)C=C1CC[C@@H]1[C@@H]2CC[C@@]2(C)[C@H]1CC[C@]2(O)C(=O)CO [11-DC, 17α,21-dihydroxypregn-4-ene-3,20-dione] |  |  | 331 | 696 | 578 | 141 | 147 | 92 | 37 |  | 
6 | TNF-α |  |  |  |  |  |  |  |  |  |  | higher levels of Flt-1
7 | CC(=O)OCC(=O)[C@@]1(O)CC[C@H]2[C@@H]3CCC4=CC(=O)CC[C@]4(C)[C@@]3(F)[C@@H](O)C[C@@]21C [FA, fludrocortisone acetate] |  |  | 166 | 27 | 86 | 261 | 445 | 10 | 34 |  | 
8 | C[C@]12CCC(=O)C=C1CC[C@@H]1[C@@H]2[C@@H](O)C[C@]2(C=O)[C@@H](C(=O)CO)CC[C@@H]12 [AS, 11β-11,21-dihydroxy-3,20-dioxopregen-4-en-18-al] |  |  | 248 | 243 | 75 | 125 | 540 | 256 |  | very variable | 
